# Earlier results in US20120316143A1, “Ophthalmic composition” (priority 2009, published 2012).
# Where two headings read alike, the source gives them in different places.
# Key:
# patients = conditions: applied topically as a 1% suspension
# [1] = tested on: normal subjects; patients with ocular hypertension
# [2] = tested on: rabbits made ocularly hypertensive with dexamethasone
smiles,measurement,setting,value
C[C@]12CC[C@@H](O)C[C@H]1CC[C@@H]1[C@@H]2[C@@H](O)C[C@@]2(C)[C@H]1CC[C@]2(O)C(=O)CO [3-α-5-β-Tetrahydrocortisol],effect on intraocular pressure,patients,lower intraocular pressure
CC1(C)[C@@H](OC(=O)CCC(=O)O)CC[C@]2(C)[C@H]3C(=O)C=C4[C@@H]5C[C@@](C)(C(=O)O)CC[C@]5(C)CC[C@@]4(C)[C@]3(C)CC[C@@H]12 [Carbenoxolone],decrease in intraocular pressure,[1]; normal subjects,20%
same,decrease in intraocular pressure,[1]; patients with ocular hypertension,20%
"C[C@]12CC[C@@H](O)C[C@H]1CC[C@@H]1[C@@H]2[C@@H](O)C[C@@]2(C)[C@H]1CC[C@]2(O)C(=O)CO [Tetrahydrocortisol, tetrahydrocortisol]",effect on intraocular pressure (IOP),[2],lower intraocular pressure
